From patent US20260345526A1, “Amphenicol Adjuvant Improves Bioavailability and Efficacy” (priority 2023, published 2026)
Where “and” joins values, the source holds several entries; their conditions need not be identical. Equal entries are not always repeated.

Key:
[1] = tested on: P. salmonis; test: Minimum inhibitory concentration of florfenicol on P. salmonis in infected SHK-1 cells; format: cell-based
Description: FIGS. 1 and 2. Cytotoxicity of andrographolide sodium bisulfite (PubChem CID: 133555830, “AP1”) and andrographolide sulphonate (PubChem CID: 72191954, “AP2”) in combination with florfenicol in SHK-1 cells treated and infected with P. salmonis. Cells were treated with AP1 (FIG. 1) and AP2 (FIG. 2) at 4.6 and 9 ng/mL and florfenicol in the range of 0,125; 0,250; 0.5 and […]. LDH analysis was done day 12 post-infection. Cells+Ps, cells infected without treatment; Vehicle+Ps, cells infected and treated with ethanol. “Flo sin AP” means florfenicol without an andrographolide; “Flo+AP” means florfenicol with an andrographolide. The percentage of cytotoxicity was calculated with respect to the control of total lysis of cells and the negative control (cells without treatment and infection) with the control florfenicol without AP. […] ANOVA y Fisher.
The effect of andrographolide on the antibiotic action of florfenicol, was corroborated by LDH in the supernatant in cells with different treatments showing the synergistic effect of andrographolide (AP) in the range of 0.125; 0.25 and 0.5 μg/mL of the antibiotic.

[2] = Florfenicol residue in muscle of coho salmon after treatment (Table 1); format: in vivo; set-up: florfenicol (residue): unit not given here; conditions: for florfenicol (residue): florfenicol 20 mg/kg
Description: Florfenicol (“FF”) was administered at a dose of 20 mg/kg at 15 days and at 30 days before harvesting. Andrographolide and seaweed powder were mixed with conventional fish feed at a dose of 1.056 kg seaweed powder and 0.044 kg andrographolide (“NATCONTROL”) per ton of feed. The NORMAL group corresponds to fish fed antibiotic without andrographolide.
So the farmer can treat with antibiotic closer to harvest, and harvested fish have far less antibiotic residue in their meat. […] This enables one to use a smaller dose of antibiotic to achieve the same effect. The residues of florfenicol at various days post-treatment indicate a more-rapid metabolization of florfenicol in fish muscle receiving andrographolide (<24 or not detected).

[3] = Plasma concentration of florfenicol over time; format: in vivo, coho salmon
Source text: FIG. 3. Plasma concentration of florfenicol over time: distribution of levels of plasma florfenicol. Y axis=Florfenicol plasma concentration (g/L). X axis=time (t=0, 5 days and 12 days). For each of the three days reported, the left bar is for fish treated with florfenicol alone, the right bar is for fish treated with florfenicol and also fed andrographolide.
(§1) Odd-numbered cages received feed medicated with both florfenicol and with andrographolide (0.044 kg andrographolide per ton of feed) for 15 days. Even-numbered cages received feed medicated with only florfenicol. X Axis=day; Y axis (left)=accumulated mortality; Y axis (right)=periodic mortality. For each period, the left bar is florfenicol alone, the right bar is florfenicol and andrographolide. For cumulative mortality, the upper line (at date #5) is florfenicol alone, the lower line is florfenicol and andrographolide.

[4] = tested on: coho salmon; test: Mortality and cause of death in coho salmon; format: in vivo
Source text: FIG. 4 measures accumulated mortality over 14 days for coho salmon treated with florfenicol alone and combined with andrographolide.
as §1
In addition, it changes the causes of mortality. Table 2 compares the cause of death for the two groups.

[5] = tested on: coho salmon; test: Quality of the fish at harvest time; format: in vivo
Source text: as §1
Table 3 compares the quality of the fish at harvest time. Premium Quality (“PRM”) fish have an absence of skin lesions and adequate body weight. A total of 332,315 fish were treated with florfenicol+andrographolide (“Impares Nat Control”) and 301,334 fish were treated with florfenicol alone (“Pares Normal”).

[6] = florfenicol combined with the andrographolide (AP1 or AP2)
[7] = andrographolide co-fed with florfenicol, coho salmon
[8] = absence of skin lesions and adequate body weight

C=C1CCC2[C@](C)(CO)[C@H](O)CC[C@@]2(C)[C@@H]1CC(C1C(=O)OC[C@H]1O)S(=O)(=O)[O-].[Na+] (stereo partly shown) [AP1, andrographolide sodium bisulfite]
minimum inhibitory concentration of florfenicol [1, 6]: 0.25 µg/mL

C=C1CC[C@@H]2[C@](C)(CO)[C@H](O)CC[C@@]2(C)[C@@H]1C/C=C1/C(=O)OC[C@H]1O [andrographolide]
in vivo metabolism and clearance of florfenicol [2, 7]: hastens the in vivo metabolism and clearance of florfenicol | antibiotic (florfenicol) concentration in plasma [3, 7]: increases antibiotic concentration in plasma | average plasma florfenicol levels ([3]; fish treated with florfenicol and fed andrographolide vs florfenicol alone, 5 and 12 days): higher average plasma florfenicol levels | mortality ([4]; andrographolide with florfenicol vs florfenicol alone): decreases mortality

CS(=O)(=O)c1ccc([C@@H](O)[C@@H](CF)NC(=O)C(Cl)Cl)cc1 [florfenicol]
minimum inhibitory concentration of florfenicol ([1]; without andrographolide): 0.5 µg/mL | FA fish, % [5]: 4.65% | FA fish, No [5]: 14012 No | GA1 fish, % [5]: 17.87% | GA1 fish, No [5]: 53835 No | GA2 fish, % [5]: 1.426% | GA2 fish, No [5]: 4297 No | percentage of Premium Quality fish [5]: 76.1% | PRM (Premium Quality) fish, % [5, 8]: 76.06% | PRM (Premium Quality) fish, No [5, 8]: 229190 No | florfenicol (residue) ([2]; Cage No. 101, andrographolide diet, Test Report No. 44.217-22): <24 | florfenicol (residue) ([2]; Cage No. 102, normal diet (no andrographolide), Test Report No. 44.218-22): 270 and 363 and 502 | florfenicol (residue) ([2]; Cage No. 103, andrographolide diet, Test Report No. 44.215-22): <24 | residues of florfenicol in fish muscle ([2]; fish receiving andrographolide, various days post-treatment): < 24 | Cause of death: Mechanical damage ([4]; Example 3): 41.6 % of Total Deaths | Cause of death: No apparent cause ([4]; Example 3): 9.3 % of Total Deaths | Cause of death: Runt (very small) fish ([4]; Example 3): 0 % of Total Deaths | Cause of death: SRS (skin lesions) ([4]; Example 3): 25.0 % of Total Deaths | Time of death: In holding pen before harvesting ([4]; Example 3): 10.9 % of Total Deaths

andrographolide sulphonate [AP2]
minimum inhibitory concentration of florfenicol [1, 6]: 0.25 µg/mL
